Measurements taken from US20140005163A1 (NOVARTIS AG, priority 2010, published 2014).

Legend:
PI3K delta = target: T1, PI3K delta (Homo sapiens, UniProt O00329); assay: PI3K delta kinase assay (Kinase-Glo luminescence); type: biochemical
T1 construct: for the full-length p110-d subunit are generated and fused by overlapping PCR; p85(iSH2) fusion partner (see partner chain) (N); His tag (C); made in house; host or cells: baculovirus; Tn5 (Trichoplusia ni) or TiniPro insect cells
Summary of the method: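 ATP 1 μM, PI 10 μg/mL, PI3Kδ construct BV1060 10 nM (final); 10 mM Tris pH 7.5, 3 mM MgCl2, 50 mM NaCl, 0.05% CHAPS, 1 mM DTT; 60 min RT; Kinase-Glo stop, luminescence.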

mTOR = target: T2, mTOR (Homo sapiens, UniProt P42345); assay: Biochemical assay for m-TOR by TR-FRET; settings: 8 μM ATP, 400 nM GFP-4EBP1, 0.5 nM mTOR
T2 construct: purchased Invitrogen Corporation (Carlsbad/CA, USA) PV4753
Summary of the method: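 TR-FRET read-out: Tb-labelled anti-p4EBP1 pThr46 antibody (0.5 nM), added in EDTA to stop the reaction, detects phosphorylated GFP-4EBP1 after 15 min. Kinase step used 0.5 nM mTOR, 400 nM substrate, 8 μM ATP, MnCl2-containing HEPES buffer pH 7.5, room temperature.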

[1] = test system: PKB Ser473 phosphorylation in Rat1-myr-HA-p110 alpha cells; assay: Reverse protein array assay, PKB Ser473 phosphorylation in Rat1-myr-p110 alpha cells; type: cell-based; settings: 0.5 h, pAkt Ser473, 30 minutes compound incubation, read-out: p-PKB IC50
Summary of the method: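 After at least 20 h of culture, the p110 isoform-transfected Rat1 lines receive compound in an 8-step dilution series, keeping DMSO at 0.2%, for 30 minutes. Cells are then lysed and lysates arrayed on chips for fluorescence detection of Ser473-phosphorylated PKB.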

T2 sequence (P42345 1360-2549 limits assumed): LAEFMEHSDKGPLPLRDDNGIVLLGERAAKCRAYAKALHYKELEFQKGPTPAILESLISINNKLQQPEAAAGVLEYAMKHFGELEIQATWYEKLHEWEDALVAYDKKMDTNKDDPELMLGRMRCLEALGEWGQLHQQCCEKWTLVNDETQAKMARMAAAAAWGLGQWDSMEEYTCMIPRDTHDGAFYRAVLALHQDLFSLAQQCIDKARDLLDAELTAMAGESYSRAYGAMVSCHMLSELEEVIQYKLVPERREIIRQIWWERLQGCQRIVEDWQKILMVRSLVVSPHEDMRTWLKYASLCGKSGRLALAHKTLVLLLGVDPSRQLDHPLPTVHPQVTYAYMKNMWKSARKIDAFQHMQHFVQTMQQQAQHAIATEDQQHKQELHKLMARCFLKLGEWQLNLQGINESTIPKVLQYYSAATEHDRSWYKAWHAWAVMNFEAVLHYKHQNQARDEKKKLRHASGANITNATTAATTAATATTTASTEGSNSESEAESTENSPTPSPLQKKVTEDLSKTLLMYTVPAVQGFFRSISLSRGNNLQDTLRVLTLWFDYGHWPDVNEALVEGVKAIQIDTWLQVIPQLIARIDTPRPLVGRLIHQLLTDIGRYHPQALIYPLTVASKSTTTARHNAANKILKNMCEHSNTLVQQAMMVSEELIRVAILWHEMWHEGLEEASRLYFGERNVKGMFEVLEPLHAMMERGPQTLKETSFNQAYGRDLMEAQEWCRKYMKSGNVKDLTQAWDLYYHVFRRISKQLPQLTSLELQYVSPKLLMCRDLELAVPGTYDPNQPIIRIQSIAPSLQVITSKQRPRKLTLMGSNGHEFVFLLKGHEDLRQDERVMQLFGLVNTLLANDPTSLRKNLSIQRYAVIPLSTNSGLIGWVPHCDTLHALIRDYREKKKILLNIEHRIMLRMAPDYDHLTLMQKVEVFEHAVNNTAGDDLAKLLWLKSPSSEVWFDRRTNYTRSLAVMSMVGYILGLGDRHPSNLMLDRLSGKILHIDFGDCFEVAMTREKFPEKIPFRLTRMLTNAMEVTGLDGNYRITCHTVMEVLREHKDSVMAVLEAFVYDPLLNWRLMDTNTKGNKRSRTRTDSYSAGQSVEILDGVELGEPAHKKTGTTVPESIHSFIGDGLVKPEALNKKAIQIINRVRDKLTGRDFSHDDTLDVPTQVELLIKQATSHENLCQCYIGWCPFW
T1 sequence (O00329 with tags, fused parts or gaps limits assumed): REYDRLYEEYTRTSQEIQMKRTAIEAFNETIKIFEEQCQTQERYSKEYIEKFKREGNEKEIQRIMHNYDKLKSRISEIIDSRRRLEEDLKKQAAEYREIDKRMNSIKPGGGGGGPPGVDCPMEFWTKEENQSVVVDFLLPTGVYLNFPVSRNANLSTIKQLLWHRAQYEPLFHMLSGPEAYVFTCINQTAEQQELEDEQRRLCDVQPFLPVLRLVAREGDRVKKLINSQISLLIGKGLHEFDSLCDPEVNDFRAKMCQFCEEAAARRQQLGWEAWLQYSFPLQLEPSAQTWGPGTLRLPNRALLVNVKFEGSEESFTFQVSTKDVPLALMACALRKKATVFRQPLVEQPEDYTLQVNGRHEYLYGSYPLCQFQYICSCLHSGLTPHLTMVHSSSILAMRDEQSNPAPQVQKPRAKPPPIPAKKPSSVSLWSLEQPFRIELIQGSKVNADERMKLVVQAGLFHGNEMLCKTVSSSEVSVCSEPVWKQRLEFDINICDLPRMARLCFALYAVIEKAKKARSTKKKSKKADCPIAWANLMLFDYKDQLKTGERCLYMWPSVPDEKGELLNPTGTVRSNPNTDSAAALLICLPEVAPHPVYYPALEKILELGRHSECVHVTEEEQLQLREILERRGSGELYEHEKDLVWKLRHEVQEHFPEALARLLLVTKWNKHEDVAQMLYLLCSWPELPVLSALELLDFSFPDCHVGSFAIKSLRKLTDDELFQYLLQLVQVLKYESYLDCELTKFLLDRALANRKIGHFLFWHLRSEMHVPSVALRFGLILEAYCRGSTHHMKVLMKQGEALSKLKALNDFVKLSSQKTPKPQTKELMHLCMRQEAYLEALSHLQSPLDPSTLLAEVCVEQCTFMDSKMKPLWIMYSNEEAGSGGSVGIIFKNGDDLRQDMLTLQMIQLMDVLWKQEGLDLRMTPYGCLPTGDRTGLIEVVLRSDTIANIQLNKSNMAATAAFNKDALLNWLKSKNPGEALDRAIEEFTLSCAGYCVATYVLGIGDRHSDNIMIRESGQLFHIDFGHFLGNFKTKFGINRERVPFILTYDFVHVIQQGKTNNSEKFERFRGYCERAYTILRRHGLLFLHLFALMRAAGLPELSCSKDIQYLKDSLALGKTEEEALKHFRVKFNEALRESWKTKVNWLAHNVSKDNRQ

| SMILES | IC50 (PI3K delta) [nM] | IC50 (mTOR) [nM] | IC50 [1] [nM] |
| --- | --- | --- | --- |
| Cc1nn(C)cc1-n1c(=O)n(C)c2cnc3ccc(-c4cncc(N(C)C5CCC5)c4)cc3c21 [Example 174, 8-[5-(Cyclobutyl-methyl-amino)-pyridin-3-yl]-1-(1,3-dimethyl-1H-pyrazol-4-yl)-3-methyl-1,3-dihydro-imidazo[4,5-c]quinolin-2-one] | 23 | 7 | 9 |
| Cc1cc(-n2c(=O)n(C)c3cnc4ccc(-c5cnc(C)c(O)c5)cc4c32)n(C)n1 [Example 185.2, 1-(2,5-Dimethyl-2H-pyrazol-3-yl)-8-(5-hydroxy-6-methyl-pyridin-3-yl)-3-methyl-1,3-dihydro-imidazo[4,5-c]quinolin-2-one] | 6 | 19 | 38 |
| [2H]C([2H])([2H])OCc1ncc(-c2ccc3ncc4c(c3c2)n(-c2cn(C)nc2C)c(=O)n4C)cc1OCC [Example 198, 1-(1,3-Dimethyl-1H-pyrazol-4-yl)-8-(5-ethoxy-6-trideuteromethoxymethyl-pyridin-3-yl)-3-methyl-1,3-dihydro-imidazo[4,5-c]quinolin-2-one] | 7 | 73 | 28 |
| CCn1cc(-n2c(=O)n(C)c3cnc4ccc(-c5cncc(C(C)(C)C#N)c5)cc4c32)c(C)n1 [Example 220.2, 2-{5-[1-(1-Ethyl-3-methyl-1H-pyrazol-4-yl)-3-methyl-2-oxo-2,3-dihydro-1H-imidazo[4,5-c]quinolin-8-yl]-pyridin-3-yl}-2-methyl-propionitrile] | 7 | 32 | 19 |
| CCNC(=O)c1cc(-c2ccc3ncc4c(c3c2)n(-c2cn(C(C)C)nc2C)c(=O)n4C)cnc1N [Example 227, 2-Amino-N-ethyl-5-[1-(1-isopropyl-3-methyl-1H-pyrazol-4-yl)-3-methyl-2-oxo-2,3-dihydro-1H-imidazo[4,5-c]quinolin-8-yl]-nicotinamide] | 26 | 161 | 136 |
| COc1ncc(-c2ccc3ncc4c(c3c2)n(-c2cc(C)nn2C)c(=O)n4C)c(OC)n1 [Example 234.4, 8-(2,4-Dimethoxy-pyrimidin-5-yl)-1-(2,5-dimethyl-2H-pyrazol-3-yl)-3-methyl-1,3-dihydro-imidazo[4,5-c]quinolin-2-one] | 19 | 187 | 17 |
| CNc1ccc(-c2ccc3ncc4c(c3c2)n(-c2cn(C(C)C)nc2C)c(=S)n4C)cn1 [Example 241, 1-(1-isopropyl-3-methyl-1H-pyrazol-4-yl)-3-methyl-8-(6-(methylamino)pyridin-3-yl)-1H-imidazo[4,5-c]quinoline-2(3H)-thione] | 147 | 79 | < 5 |
| CCn1cc(-n2c(=O)n(C)c3cnc4ccc(-c5ccc(OC)c(OC)c5)nc4c32)c(C)n1 [Example 254, 8-(3,4-Dimethoxy-phenyl)-1-(1-ethyl-3-methyl-1H-pyrazol-4-yl)-3-methyl-1,3-dihydro-1,3,5,9-tetraaza-cyclopenta[a]naphthalen-2-one] | 26 | 65 | 30 |
